Bounds are passed on as bounds.

Among the data in patent US8044079B2, “Substituted oxindole derivatives, medicaments containing said derivatives and use thereof” (Abbott GmbH & Co. KG, priority 2005, dated 2011) are Ki values, retold here.

This experiment addresses T1, human vasopressin V1b receptor (Homo sapiens, UniProt P47901).
T1 construct: expressed in transfected cells; host or cells: CHO-K1 (cell line hV1b_3H2_CHO), membrane preparation
T1 sequence (P47901 1-424): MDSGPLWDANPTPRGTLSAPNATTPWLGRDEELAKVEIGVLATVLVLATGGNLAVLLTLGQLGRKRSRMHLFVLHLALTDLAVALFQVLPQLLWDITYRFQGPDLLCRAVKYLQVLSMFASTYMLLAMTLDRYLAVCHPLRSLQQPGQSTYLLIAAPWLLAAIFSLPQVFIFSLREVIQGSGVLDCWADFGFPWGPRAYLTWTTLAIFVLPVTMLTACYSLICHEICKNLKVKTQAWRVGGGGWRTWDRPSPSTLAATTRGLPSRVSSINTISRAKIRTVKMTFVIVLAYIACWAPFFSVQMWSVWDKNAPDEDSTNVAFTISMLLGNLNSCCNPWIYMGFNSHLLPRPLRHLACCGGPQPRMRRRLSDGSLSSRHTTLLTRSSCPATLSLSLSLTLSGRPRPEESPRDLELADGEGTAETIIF
Description: Vasopressin V1b receptor binding test. The settings on record: membranes of CHO-K1 cells with human V1b receptor, displacement of 1.5 nM 3H-AVP; for compounds with more than one stereogenic center the diastereomer with greater affinity. The method, boiled down:
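Radioligand displacement on membranes carrying human V1b receptor in 50 mM tris, 10 mM MgCl2, 0.1% BSA, pH 7.4, 2% DMSO final; 60 min at room temperature, nonspecific binding with 1 μM AVP. Free ligand removed by filtration, bound counted by liquid scintillation, Ki from nonlinear regression of triplicates.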

For `COc1ccc(S(=O)(=O)N2C(=O)C(c3ccc(CN4CCN(CCO)CC4)cc3OC)(N3CCC[C@H]3c3ncco3)c3cc(C#N)ccc32)cc1` (stereo partly drawn) [Example 147, 5-Cyano-3-{4-[4-(2-hydroxyethyl)piperazin-1-ylmethyl]-2-methoxyphenyl}-1-(4-methoxybenzenesulfonyl)-3-((S)-2-oxazol-2-yl-pyrrolidin-1-yl)-1,3-dihydroindol-2-one], the Ki is below 10 nM.
On to `CCN1CCN(Cc2ccc(C3(N4CCC[C@H]4c4ncco4)C(=O)N(S(=O)(=O)c4ccc(OC)cc4)c4ccc(C#N)cc43)c(OC)c2)CC1` (stereo partly drawn) [Example 148, 5-Cyano-3-[4-(4-ethylpiperazin-1-ylmethyl)-2-methoxyphenyl]-1-(4-methoxybenzenesulfonyl)-3-((S)-2-oxazol-2-yl-pyrrolidin-1-yl)-1,3-dihydroindol-2-one], for which the Ki was below 10 nM.
In the case of `COc1ccc(S(=O)(=O)N2C(=O)C(c3cc(CN(C)C)ccc3OC)(N3C[C@H](O)C[C@H]3c3ncco3)c3cc(C#N)ccc32)cc1` (stereo partly drawn) [Example 150, 5-Cyano-3-(5-dimethylaminomethyl-2-methoxyphenyl)-3-((2S,4R)-4-hydroxy-2-oxazol-2-yl-pyrrolidin-1-yl)-1-(4-methoxybenzenesulfonyl)-1,3-dihydroindol-2-one] it was below 10 nM; in that of `CCNCc1ccc(OC)c(C2(N3C[C@H](O)C[C@H]3c3ncco3)C(=O)N(S(=O)(=O)c3ccc(OC)cc3)c3ccc(C#N)cc32)c1` (stereo partly drawn) [Example 151, 5-Cyano-3-(5-ethylaminomethyl-2-methoxyphenyl)-3-((2S,4R)-4-hydroxy-2-oxazol-2-yl-pyrrolidin-1-yl)-1-(4-methoxybenzenesulfonyl)-1,3-dihydroindol-2-one], below 10 nM.
Molecule `CCN1CCN(Cc2ccc(C3(N4CCC[C@H]4c4ncco4)C(=O)N(S(=O)(=O)c4ccc(C#N)cc4)c4ccc(Cl)cc43)c(OC)c2)CC1` (stereo partly drawn) [Example 152, 5-Chloro-3-[4-(4-ethylpiperazin-1-ylmethyl)-2-methoxyphenyl]-3-((S)-2-oxazol-2-yl-pyrrolidin-1-yl)-1-(4-cyanobenzenesulfonyl)-1,3-dihydroindol-2-one] registered a Ki below 10 nM.
In turn, `COc1ccc(S(=O)(=O)N2C(=O)C(c3ccc(CN4CCNCC4)cc3OC)(N3CCC[C@H]3c3ncco3)c3cc(C#N)ccc32)cc1` (stereo partly drawn) [Example 153, 5-Cyano-1-(4-methoxybenzenesulfonyl)-3-(2-methoxy-4-piperazin-1-ylmethylphenyl)-3-((S)-2-oxazol-2-yl-pyrrolidin-1-yl)-1,3-dihydroindol-2-one] gave a Ki below 10 nM.
In the case of `COc1ccc(S(=O)(=O)N2C(=O)C(c3ccc(CNCCO)cc3OC)(N3CCC[C@H]3c3ncco3)c3cc(C#N)ccc32)cc1` (stereo partly drawn) [Example 154, 5-Cyano-3-{4-[(2-hydroxyethylamino)methyl]-2-methoxyphenyl}-1-(4-methoxybenzenesulfonyl)-3-((S)-2-oxazol-2-yl-pyrrolidin-1-yl)-1,3-dihydroindol-2-one] it was below 10 nM; in that of `CNCc1ccc(OC)c(C2(N3CCCC3c3nccs3)C(=O)N(S(=O)(=O)c3ccc(OC)cc3)c3ccc(Cl)cc32)c1` (stereo not shown) [Example 155, 5-Chloro-1-(4-methoxybenzenesulfonyl)-3-(2-methoxy-5-methylaminomethylphenyl)-3-(2-thiazol-2-yl-pyrrolidin-1-yl)-1,3-dihydroindol-2-one], below 10 nM.
In the case of `COc1cc(CN(C)C)ccc1C1(N2CCC[C@H]2c2ncco2)C(=O)N(S(=O)(=O)c2ccc(C#N)cc2)c2ccc(Cl)cc21` (stereo partly drawn) [Example 156, 5-Chloro-3-(4-dimethylaminomethyl-2-methoxyphenyl)-3-((S)-2-oxazol-2-yl-pyrrolidin-1-yl)-1-(4-cyanobenzenesulfonyl)-1,3-dihydroindol-2-one] it was 10 to 100 nM; in that of `COc1cc(CN2CCCC2)ccc1C1(N2CCC[C@H]2c2ncco2)C(=O)N(S(=O)(=O)c2ccc(C#N)cc2)c2ccc(Cl)cc21` (stereo partly drawn) [Example 157, 5-Chloro-3-(2-methoxy-4-pyrrolidin-1-ylmethylphenyl)-3-((S)-2-oxazol-2-yl-pyrrolidin-1-yl)-1-(4-cyanobenzenesulfonyl)-1,3-dihydroindol-2-one], 10 to 100 nM.
Turning to `COc1cc(CN2CCN(C)CC2)ccc1C1(N2CCC[C@H]2c2ncco2)C(=O)N(S(=O)(=O)c2ccc(C#N)cc2)c2ccc(Cl)cc21` (stereo partly drawn) [Example 158, 5-Chloro-3-[2-methoxy-4-(4-methylpiperazin-1-ylmethyl)phenyl]-3-((S)-2-oxazol-2-yl-pyrrolidin-1-yl)-1-(4-cyanobenzenesulfonyl)-1,3-dihydroindol-2-one], the Ki is below 10 nM.
Under `CCCNCc1ccc(C2(N3CCC[C@H]3c3ncco3)C(=O)N(S(=O)(=O)c3ccc(C#N)cc3)c3ccc(Cl)cc32)c(OC)c1` (stereo partly drawn) [Example 159, 5-Chloro-3-(2-methoxy-4-propylaminomethylphenyl)-3-((S)-2-oxazol-2-yl-pyrrolidin-1-yl)-1-(4-cyanobenzenesulfonyl)-1,3-dihydroindol-2-one] stands 10 to 100 nM; under `COc1ccc(S(=O)(=O)N2C(=O)C(c3cc(CN4CCNCC4)ccc3OC)(N3C[C@H](O)C[C@H]3c3ncco3)c3cc(C#N)ccc32)cc1` (stereo partly drawn) [Example 160, 5-Cyano-3-((2S,4R)-4-hydroxy-2-oxazol-2-yl-pyrrolidin-1-yl)-1-(4-methoxybenzenesulfonyl)-3-(2-methoxy-5-piperazin-1-ylmethylphenyl)-1,3-dihydroindol-2-one], below 10 nM; under `C=CCNCc1ccc(OC)c(C2(N3CCC[C@H]3c3ncco3)C(=O)N(S(=O)(=O)c3ccc(OC)cc3)c3ccc(Cl)cc32)c1` (stereo partly drawn) [Example 161, 5-Chloro-3-(5-allylaminomethyl-2-methoxyphenyl)-1-(4-methoxybenzenesulfonyl)-3-((S)-2-oxazol-2-yl-pyrrolidin-1-yl)-1,3-dihydroindol-2-one], below 10 nM.
In the case of `COc1cc(CN2CCNCC2)ccc1C1(N2CCC[C@H]2c2ncco2)C(=O)N(S(=O)(=O)c2ccc(C#N)cc2)c2ccc(Cl)cc21` (stereo partly drawn) [Example 162, 5-Chloro-3-(2-methoxy-4-piperazin-1-ylmethylphenyl)-3-((S)-2-oxazol-2-yl-pyrrolidin-1-yl)-1-(4-cyanobenzenesulfonyl)-1,3-dihydroindol-2-one] it was below 10 nM.
In the case of `CNCc1ccc(OC)c(C2(N3C[C@H](O)C[C@H]3c3ncco3)C(=O)N(S(=O)(=O)c3ccc(OC)cc3)c3ccc(C#N)cc32)c1` (stereo partly drawn) [Example 163, 5-Cyano-3-((2S,4R)-4-hydroxy-2-oxazol-2-yl-pyrrolidin-1-yl)-1-(4-methoxybenzenesulfonyl)-3-(2-methoxy-5-methylaminomethylphenyl)-1,3-dihydroindol-2-one] it was below 10 nM.
`COc1ccc(S(=O)(=O)N2C(=O)C(c3cc(CN4CCN(C)CC4)cnc3OC)(N3CCC[C@H]3c3ncco3)c3cc(Cl)ccc32)cc1` (stereo partly drawn) [Example 164, 5-Chloro-1-(4-methoxybenzenesulfonyl)-3-[2-methoxy-5-(4-methylpiperazin-1-ylmethyl)pyridin-3-yl]-3-((S)-2-oxazol-2-yl-pyrrolidin-1-yl)-1,3-dihydroindol-2-one] came in with a Ki below 10 nM.
In the case of `COc1ccc(S(=O)(=O)N2C(=O)C(c3ccc(CN4CCN(C)CC4)cc3OC)(N3C[C@H](O)C[C@H]3c3ncco3)c3cc(Cl)ccc32)cc1` (stereo partly drawn) [Example 165, 5-Chloro-3-((2S,4R)-4-hydroxy-2-oxazol-2-yl-pyrrolidin-1-yl)-1-(4-methoxybenzenesulfonyl)-3-[2-methoxy-4-(4-methylpiperazin-1-ylmethyl)phenyl]-1,3-dihydroindol-2-one] it was below 10 nM; in that of `COc1ccc(S(=O)(=O)N2C(=O)C(c3ccc(CN4CCN(C(C)C)CC4)cc3OC)(N3C[C@H](O)C[C@H]3c3ncco3)c3cc(Cl)ccc32)cc1` (stereo partly drawn) [Example 166, 5-Chloro-3-((2S,4R)-4-hydroxy-2-oxazol-2-yl-pyrrolidin-1-yl)-3-[4-(4-isopropylpiperazin-1-ylmethyl)-2-methoxyphenyl]-1-(4-methoxybenzenesulfonyl)-1,3-dihydroindol-2-one], below 10 nM.
Under `CNCc1cnc(OC)c(C2(N3CCC[C@H]3c3ncco3)C(=O)N(S(=O)(=O)c3ccc(OC)cc3)c3ccc(Cl)cc32)c1` (stereo partly drawn) [Example 167, 5-Chloro-1-(4-methoxybenzenesulfonyl)-3-(2-methoxy-5-methylaminomethylpyridin-3-yl)-3-((S)-2-oxazol-2-yl-pyrrolidin-1-yl)-1,3-dihydroindol-2-one] stands below 10 nM; under `COc1ccc(S(=O)(=O)N2C(=O)C(c3cc(CNC4CC4)ccc3OC)(N3CCC[C@H]3c3ncco3)c3cc(Cl)ccc32)cc1` (stereo partly drawn) [Example 168, 5-Chloro-3-(5-cyclopropylaminomethyl-2-methoxyphenyl)-1-(4-methoxybenzenesulfonyl)-3-((S)-2-oxazol-2-yl-pyrrolidin-1-yl)-1,3-dihydroindol-2-one], below 10 nM.
`COc1ccc(S(=O)(=O)N2C(=O)C(c3ccc(CN4CCCCC4)cc3OC)(N3C[C@H](O)C[C@H]3c3ncco3)c3cc(Cl)ccc32)cc1` (stereo partly drawn) [Example 169, 5-Chloro-3-((2S,4R)-4-hydroxy-2-oxazol-2-yl-pyrrolidin-1-yl)-1-(4-methoxybenzenesulfonyl)-3-(2-methoxy-4-piperidin-1-ylmethylphenyl)-1,3-dihydroindol-2-one] gave an inhibition constant (Ki) below 10 nM.
